Values joined by “and” are separate entries in the source; they are usually repeats but may differ in a detail not shown here. Equal entries are not always repeated.
What was measured:
[1] = Rat blood PK samples after intravenous injection, Group 1; assay type: in vivo; settings: rat Group 1, IV injection, in ng-eq/g
Experimental: A study was conducted to determine the pharmacokinetics, rates and routes of excretion with mass baseline and tissue distribution of radioactivity, after a single intravenous dose administration of formula XIII (also referred to as [^14C]DAP) was administered to the rats by tail vein intravenous injection at a
The study was conducted on 19 male rats divided into 4 groups. The first group of 6 rats was used for blood collection (Group 1); the second group of 4 rats was used for urine, feces, cage rinses and wipes and carcasses collection (Group 2); the third group of 4 rats was used for expired air collection (Group 3); the fourth group of 5 rats was used for terminal blood/serum and tissue distribution by Quantitative Whole-Body Autoradiography (QWBA) (Group 4).

[2] = In vivo toxicity study, rats; settings: rat, read-out: Maximum tolerated dose
Experimental: (§1) A study was conducted to test the toxicity of labeled formula XIII in rats and dogs. Maximum tolerated doses were 40 mg/kg for rats and 35 mg/kg for dogs.

[3] = In vivo toxicity study, dogs; settings: dog, read-out: Maximum tolerated dose
Experimental: as §1

## [2H]C1([2H])N(CCCNC(=O)[C@@H](N)CCCNC(=N)N)C([2H])([2H])C([2H])([2H])N(CCCNC(=O)[C@@H](N)CCCNC(=N)N)C1([2H])[2H] [formula XIII]
[1]; 0.083 hrs, Mean
  Rat Blood PK Samples: 12494.00
[1]; 0.083 hrs, individual rats
  Rat Blood PK Samples: 12283.00 and 12343.00 and 12856.00
[1]; 0.250 hrs, Mean
  Rat Blood PK Samples: 7636.87
[1]; 0.250 hrs, individual rats
  Rat Blood PK Samples: 6989.90 and 8433.50 and 7487.20
[1]; 0.5 hrs, Mean
  Rat Blood PK Samples: 4715.77
[1]; 0.5 hrs, individual rats
  Rat Blood PK Samples: 4890.10 and 4595.70 and 4661.50
[1]; 1 hrs, Mean
  Rat Blood PK Samples: 1639.20
[1]; 1 hrs, individual rats
  Rat Blood PK Samples: 1277.80 and 2173.10 and 1466.70
[1]; 2 hrs, Mean
  Rat Blood PK Samples: 497.04
[1]; 2 hrs, individual rats
  Rat Blood PK Samples: 513.73 and 503.14 and 474.26
[1]; 4 hrs, Mean
  Rat Blood PK Samples: 251.03
[1]; 4 hrs, individual rats
  Rat Blood PK Samples: 244.30 and 269.75 and 239.03
[1]; 8 hrs, Mean
  Rat Blood PK Samples: 187.88
[1]; 8 hrs, individual rats
  Rat Blood PK Samples: 207.32 and 187.12 and 169.19
[1]; 12 hrs, Mean
  Rat Blood PK Samples: 145.76
[1]; 12 hrs, individual rats
  Rat Blood PK Samples: 149.71 and 148.64 and 138.94
[1]; 24 hrs, Mean
  Rat Blood PK Samples: 99.45
[1]; 24 hrs, individual rats
  Rat Blood PK Samples: 105.64 and 108.29 and 84.43
[1]; 48 hrs, Mean
  Rat Blood PK Samples: 50.56
[1]; 48 hrs, individual rats
  Rat Blood PK Samples: 49.28 and 52.03 and 50.38
[1]; 72 hrs, Mean
  Rat Blood PK Samples: 24.63
[1]; 72 hrs, individual rats
  Rat Blood PK Samples: 23.54 and 33.09 and 17.27
[1]; 96 hrs, Mean
  Rat Blood PK Samples: 17.23
[1]; 96 hrs, individual rats
  Rat Blood PK Samples: 17.39 and 16.69 and 17.60
[2]
  MTD: 40 mg/kg
[3]
  MTD: 35 mg/kg
